Patent US20200383985A1, “Inhibitors of Protease Activated Receptor-2” (Endosome Therapeutics, Inc., priority 2017, published 2020)

Columns and labels:
PKC and ERK activity = experiment: FRET assays of compartmentalized PKC and ERK in DRG neurons; assay type: cell-based, rat; conditions: I-343 10 μM, SCH530348 100 nM
Description: To determine whether trypsin causes PAR2-dependent activation of PKC and ERK, which respectively mediate initial and persistent trypsin-induced hyperexcitability of nociceptors, genetically-encoded Förster Resonance Energy Transfer (FRET) biosensors were expressed in neurons. […] Trypsin (10 or 100 nM) activated PKC at the plasma membrane but not in the cytosol (FIG. 4E-G), and activated ERK in the cytosol and nucleus (FIG. 4H-J). The PAR2 antagonist I-343 (10 μM) inhibited trypsin-induced activation of PKC and ERK, whereas the PAR1 antagonist SCH530348 (100 nM) had no effect (FIG. 4F, I). At the end of experiments, neurons were challenged with the positive controls phorbol 12,13-dibutyrate (PDBu) for EKAR biosensors or PDBu plus phosphatase inhibitor mixture-2 for CKAR biosensors, to ensure that the response of the biosensor was not saturated.
DRG were collected from C57BL/6 mice and Sprague-Dawley rats (all levels). DRG were incubated with collagenase IV (2 mg/ml) and dispase II (1 mg/ml) for 30 min (mice) and 45 min (rats) at 37° C. DRG were dispersed by trituration with a fire-polished Pasteur pipette. Dissociated neurons were transfected with mPAR2-GFP (1 μg), the FRET biosensors CytoEKAR, NucEKAR, pmCKAR or CytoCKAR (all […]), or with the BRET biosensors PAR2-RLuc8 (125 ng) and βARR2-FYP (475 ng) using the Lonza 4D-Nucleofector X unit according to the manufacturer's instructions. Neurons were plated on laminin- (0.004 mg/ml) and poly-L-Lysine- (0.1 mg/ml) coated glass coverslips for confocal microscopy, on ViewPlate-96 plates (PerkinElmer) for FRET assays, or on CulturPlates (PerkinElmer) for BRET assays. Neurons were maintained in Dulbecco's modified Eagle medium (DMEM) containing 10% fetal bovine serum (FBS), antibiotic-antimitotic, and N1 supplement for 48 h before study.
Rat DRG neurons expressing FRET biosensors were serum-restricted (0.5% FBS overnight), and equilibrated in HBSS-HEPES (10 mM HEPES, pH 7.4, 30 min, 37° C.). FRET was analyzed using an Operetta CLS High-Content Imaging System (PerkinElmer) or an INCell Analyzer 2000 G E Healthcare Life Sciences). For CFP/YFP emission ratio analysis, cells were sequentially excited using a CFP filter (410-430 nm) with emission measured using YFP (520-560 nm) and CFP (460-500 nm) filters. Cells were imaged at 1 or 2 min intervals. Baseline was measured, neurons were challenged with trypsin (10 or 100 nM) or vehicle, and responses recorded for a further 30 min. Neurons were then challenged with phorbol 12,13-dibutyrate (PDBu, 200 nM, 10 min) for EKAR biosensors or PDBu (200 nM) and phosphatase inhibitor cocktail-2 (SigmaAldrich, 10 min) for CKAR biosensors. Data were analyzed using Harmony 4.1 or Image J 1.51 software. Images taken were aligned, cells were selected based on diameter, and fluorescence intensity was calculated for both FRET and CFP channels. Background intensity was subtracted and the FRET ratio was determined as the change in the FRET/donor (EKAR) or donor/FRET (CKAR) emission ratio relative to the baseline for each cell (F/Fo). Cells with >5% changes in F/F0 after PDBu stimulation were selected for analysis. Neurons were incubated with I-343 (10 μM), SCH530348 (100 nM) or vehicle (30 min, 37° C. preincubation and inclusion throughout).

PKC and cAMP = experiment: FRET assays of PKC and cAMP in HEK293 cells; assay type: cell-based; conditions: HEK293 cells
Description: I-343, but not SCH530348, inhibited trypsin stimulation of PKC and cAMP, which thus depend on PAR2 (FIGS. 19G and H). […] The sustained plasma membrane cAMP response to trypsin support the existence of mechanisms that allow persistent PAR2 signaling, which warrant further investigation.
HEK293 cells were cultured in DMEM supplemented with 10% (v/v) FBS (5% CO2, 37° C.). When necessary serum restriction was achieved by replacing culture medium with DMEM containing 0.5% FBS overnight. Cells were transiently transfected using polyethylenimine (PEI) (1:6 DNA:PEI).
HEK293 cells were transiently transfected in 10 cm dishes (˜50% confluency) with Flag-PAR2-HA (2.5 μg) and FRET biosensors CytoEKAR or NucEKAR (2.5 μg) (Jensen, D. D. et al., Sci Transl Med. 2017, 9(392), eaal3447; Thomsen, A. R. B., et al., Cell 2016, 166(4): 907-919). In experiments examining the role of dynamin, cells were transfected with FLAG-PAR2-HA (1.25 μg), FRET biosensor (1.25 μg) and either DynWT-HA, DynK44E-HA or pcDNA3.1 (2.5 μg). At 24 h after transfection, cells were seeded on ViewPlate-96 well plates (PerkinElmer). FRET was assessed 72 h post-transfection, following overnight serum restriction. Cells were equilibrated in HBSS-HEPES (30 min, 37° C.). FRET was measured using a PHERAstar FSX Microplate Reader (BMG LabTech). For CFP/YFP emission ratio analysis, cells were sequentially excited using a CFP filter (425/10 nm) with emission measured using YFP (550/50 nm) and CFP (490/20 nm) filters. FRET was measured before and after stimulation with trypsin (10 nM), NE (100 nM), CS (100 nM), phorbol 12,13-dibutyrate, PDBu (positive control, 1 μM), or vehicle. FRET ratios (donor/acceptor intensity for EKAR, or acceptor/donor intensity for CKAR and Epac) were calculated and corrected to baseline and vehicle treatments to determine ligand-induced FRET (ΔFRET). Treatment effects were determined by comparison of area under the curve values. Signalling inhibitors were dissolved in HBSS-HEPES. PS2 and PS2 inact were dissolved in HBSS-HEPES+1% DMSO. […]

CCOC(=O)N[C@@H]1CC[C@@H]2[C@@H](C1)C[C@H]1C(=O)O[C@H](C)[C@H]1[C@H]2/C=C/c1ccc(-c2cccc(F)c2)cn1 [SCH530348]
trypsin-induced activation of PKC and ERK (PKC and ERK activity): no effect | trypsin stimulation of PKC and cAMP (PKC and cAMP): not
